Some results are limits rather than exact numbers.

The first assay addresses T1, menin (Homo sapiens, UniProt O00255, T541A).
T1 construct: Menin (a.a. 1-610-6×his tag)
T1 sequence (O00255 with tags, fused parts or gaps T541A): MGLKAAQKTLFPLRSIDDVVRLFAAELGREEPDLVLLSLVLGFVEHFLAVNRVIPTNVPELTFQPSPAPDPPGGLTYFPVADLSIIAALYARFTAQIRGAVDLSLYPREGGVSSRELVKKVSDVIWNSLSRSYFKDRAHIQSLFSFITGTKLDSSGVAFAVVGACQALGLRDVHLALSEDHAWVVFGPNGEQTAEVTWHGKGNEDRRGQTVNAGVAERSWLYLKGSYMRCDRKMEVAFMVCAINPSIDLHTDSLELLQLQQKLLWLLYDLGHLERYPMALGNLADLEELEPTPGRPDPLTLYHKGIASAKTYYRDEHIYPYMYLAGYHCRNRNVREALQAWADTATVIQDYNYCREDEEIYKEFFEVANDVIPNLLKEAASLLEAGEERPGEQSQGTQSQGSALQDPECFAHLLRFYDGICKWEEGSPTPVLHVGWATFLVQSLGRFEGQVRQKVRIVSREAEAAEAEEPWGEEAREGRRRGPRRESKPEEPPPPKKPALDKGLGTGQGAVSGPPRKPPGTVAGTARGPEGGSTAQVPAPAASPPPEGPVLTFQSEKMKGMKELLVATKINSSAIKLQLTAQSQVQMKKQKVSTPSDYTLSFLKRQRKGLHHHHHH
Nature of the assay: Menin/MLL homogenous time-resolved fluorescence (HTRF) assay. Format: binding. The conditions noted are these: location 1; read-out: (2) location 1 Menin HTRF assay (IC50 (nM)). The procedure:
2) Menin/MLL Homogenous Time-Resolved Fluorescence (HTRF) Assay
To an untreated, white 384-well microtiter plate was added 40 nL 200× test compound in DMSO and 4 μL 2× terbium chelate-labeled menin (vide infra for preparation) in assay buffer (40 mM Tris HCl, pH 7.5, 50 mM NaCl, 1 mM DTT and 0.05% Pluronic F-127). After incubation of test compound and terbium chelate-labeled menin for 5 min at ambient temperature, 4 μL 2× FITC-MBM1 peptide (FITC-β-alanine-[…]-NH2 (SEQ ID NO: 23)) in assay buffer was added, the microtiter plate centrifuged at 1000 rpm for 1 min and the assay mixtures incubated for 15 min at ambient temperature. The relative amount of menin.FITC-MBM1 complex present in an assay mixture is determined by measuring the homogenous time-resolved fluorescence (HTRF) of the terbium/FITC donor/acceptor fluorphore pair using a BMG Pherastar plate reader (ex. 337 nm/terbium em. 490 nm/FITC em. 520 nm) at ambient temperature. The degree of fluorescence resonance energy transfer (the HTRF value) is expressed as the ratio of the fluorescence emission intensities of the FITC and terbium fluorophores (Fern 520 nm/Fem 490 nm). The final concentrations of reagents in the binding assay are […] terbium chelate-labeled menin (location 2), 75 nM FITC-MBM1 peptide and 0.5% DMSO in assay buffer. Dose-response titrations of test compounds are conducted using an 11 point, three-fold serial dilution scheme, starting typically at 25 μM (location 1) or starting typically at 10 μM (location 2).
Compound potencies were determined by first calculating % inhibition at each compound concentration according to equation 1: % inhibition=((HC−LC)−(HTRF^compound−LC))/(HC−LC))*100 (Eqn 1)
Where LC and HC are the HTRF values of the assay in the presence or absence of a saturating concentration of a compound that competes with FITC-MBM1 for binding to menin, and HTRF^compound is the measured HTRF value in the presence of the test compound. FTC and LC HTRF values represent an average of at least 16 replicates per plate.
Where Bottom and Top are the lower and upper asymptotes of the dose-response curve, respectively, IC50 is the concentration of compound that yields 50% inhibition of signal and h is the Hill coefficient.
Preparation of Terbium cryptate labeling of Menin: Menin (a.a. 1-610-6×his tag (“6×his” disclosed as SEQ ID NO: 3)) was labeled with terbium cryptate as follows. 2 mg of Menin was buffer exchanged into 1× phosphate buffered saline. 16 uM Menin was incubated with 4-fold molar excess NHS-terbium cryptate (Cisbio Bioassays, Bedford, Mass.) for 2 hours at room temperature. The labeled protein was purified away from free label by running the reaction over a Superdex 200 Increase 10/300 GL column at 0.75 ml/min. Peak fractions were collected, aliquoted and frozen at −80° C.
A general note: TR-FRET usually uses a lanthanide donor and a delayed reading to cut background.
Take `N#CCc1ccc(C(=O)NC2CC3(CCN(c4ncnc5sc(CC(F)(F)F)cc45)C3)C2)cc1` (mixture of isomers) [Compound 10]: the IC50 is 843 nM.

In the case of `CC(C)CN(C(=O)CCN1CCOCC1)C1CC2(CCN(c3ncnc4sc(CC(F)(F)F)cc34)C2)C1` (mixture of isomers) [Compound 52], the IC50 came to 555 nM. Consider `FC(F)(F)Cc1cc2c(N3CCC4(CCC(NCc5ccccc5)C4)C3)ncnc2s1` (single isomer, unassigned) [Compound 4], for which the half-maximal inhibitory concentration (IC50) is 188 nM. On the same count and under the same terms, to `FC(F)(F)Cc1cc2c(N3CCC4(CCC(NCc5ccccc5)C4)C3)ncnc2s1` (single isomer, unassigned) [Compound 6] belongs 472 nM.

The same assay, now with this note: location 2; read-out: (2) location 2 Menin HTRF assay (IC50 (nM)).
Turning to `N#CCc1ccc(C(=O)NC2CC3(CCN(c4ncnc5sc(CC(F)(F)F)cc45)C3)C2)cc1` (mixture of isomers) [Compound 10], the half-maximal inhibitory concentration (IC50) was 948 nM. In the case of `Fc1ccccc1NC1CC2(CCN(c3ncnc4sc(CC(F)(F)F)cc34)C2)C1` (mixture of isomers) [Compound 156], the 50% inhibitory concentration (IC50) was 155 nM. Still for that read-out and setting: under `Fc1cccc(NC2CC3(CCN(c4ncnc5sc(CC(F)(F)F)cc45)C3)C2)c1` (mixture of isomers) [Compound 157] stands 118 nM; under `FC(F)(F)Cc1cc2c(N3CCC4(CC(Nc5ccccc5Cl)C4)C3)ncnc2s1` (mixture of isomers) [Compound 159], 199 nM. For `FC(F)(F)Cc1cc2c(N3CCC4(CC(Nc5cccc(Cl)c5)C4)C3)ncnc2s1` (mixture of isomers) [Compound 160], the IC50 was found to be 150 nM. On the same count and under the same terms, under `FC(F)(F)Cc1cc2c(N3CCC4(CC(Nc5ccc(Cl)cc5)C4)C3)ncnc2s1` (mixture of isomers) [Compound 161] stands 101 nM; under `Cc1ccccc1NC1CC2(CCN(c3ncnc4sc(CC(F)(F)F)cc34)C2)C1` (mixture of isomers) [Compound 165], 656 nM. Turning to `Cc1cccc(NC2CC3(CCN(c4ncnc5sc(CC(F)(F)F)cc45)C3)C2)c1` (mixture of isomers) [Compound 166], the IC50 is 400 nM. For the molecule `Cc1ccc(NC2CC3(CCN(c4ncnc5sc(CC(F)(F)F)cc45)C3)C2)cc1` (mixture of isomers) [Compound 167], the half-inhibitory concentration (IC50) was 98.1 nM.

Regarding `N#CCc1cccc(NC2CC3(CCN(c4ncnc5sc(CC(F)(F)F)cc45)C3)C2)c1` (mixture of isomers) [Compound 173], the IC50 was found to be 127 nM. Still for that read-out and setting: to `CN(CC1CC2(CCN(c3ncnc4sc(CC(F)(F)F)cc34)C2)C1)c1cnn(C)c1` (mixture of isomers) [Compound 197] belongs 2350 nM. The same measure, in the same setting: under `Cn1ncc2ccc(NC3CC4(CCN(c5ncnc6sc(CC(F)(F)F)cc56)C4)C3)cc21` (mixture of isomers) [Compound 206] stands 224 nM; under `Cn1cnc2ccc(NC3CC4(CCN(c5ncnc6sc(CC(F)(F)F)cc56)C4)C3)cc21` (mixture of isomers) [Compound 207], 210 nM; under `Cc1noc2cc(NC3CC4(CCN(c5ncnc6sc(CC(F)(F)F)cc56)C4)C3)ccc12` (mixture of isomers) [Compound 215], 62 nM.

`CNc1nc(N2CCC3(CC(Nc4ccc5oc(=O)n(CCN6CCN(S(C)(=O)=O)CC6)c5c4)C3)C2)c2cc(CC(F)(F)F)sc2n1` (mixture of isomers) [Compound 248]: the 50% inhibitory concentration (IC50) stood at 348 nM. Same read-out and setting: under `CS(=O)(=O)N1CCN(CCn2c(=O)oc3cc(NC4CC5(CCN(c6ncnc7sc(CC(F)(F)F)cc67)C5)C4)ccc32)CC1` (mixture of isomers) [Compound 249] stands 272 nM; under `CN(C(=O)c1ccccc1)C1CC2(CCN(c3ncnc4sc(CC(F)(F)F)cc34)C2)C1` (mixture of isomers) [Compound 260], more than 10000 nM. Same read-out and setting: under `CS(=O)(=O)N1CCN(CCn2c(=O)oc3ccc(NC4CC5(CCN(c6ncnc7sc(CC(F)(F)F)cc67)C5)C4)cc32)CC1` (mixture of isomers) [Compound 270] stands 518 nM; under `O=c1ccc(NC2CC3(CCN(c4ncnc5sc(CC(F)(F)F)cc45)C3)C2)c[nH]1` (mixture of isomers) [Compound 305], 148 nM. Turning to `FC(F)(F)Cc1cc2c(N3CCC4(CC(Nc5cn[nH]c5)C4)C3)ncnc2s1` (mixture of isomers) [Compound 309], the concentration for half-maximal inhibition (IC50) amounted to 339 nM.

In the case of `Cn1cc(NC2CC3(CCN(c4ncnc5sc(CC(F)(F)F)cc45)C3)C2)cn1` (mixture of isomers) [Compound 310], the concentration for half-maximal inhibition (IC50) is more than 10000 nM. On the same count and under the same terms, to `Cn1c(=O)[nH]c2ccc(NC3CC4(CCN(c5ncnc6sc(CC(F)(F)F)cc56)C4)C3)cc21` (mixture of isomers) [Compound 325] belongs 1690 nM; to `CN1CCN(C(=O)c2ccc(NC3CC4(CCN(c5ncnc6sc(CC(F)(F)F)cc56)C4)C3)cc2)CC1` (mixture of isomers) [Compound 336], 297 nM; to `N#Cc1cccc(S(=O)(=O)NC2CC3(CCN(c4ncnc5sc(CC(F)(F)F)cc45)C3)C2)c1` (mixture of isomers) [Compound 415], 473 nM.

In the case of `O=S(=O)(NC1CC2(CCN(c3ncnc4sc(CC(F)(F)F)cc34)C2)C1)c1cccc(C(F)(F)F)c1` (mixture of isomers) [Compound 416], the IC50 turned out to be 433 nM. Still for that read-out and setting: to `O=S(=O)(NC1CC2(CCN(c3ncnc4sc(CC(F)(F)F)cc34)C2)C1)c1ccc(C(F)(F)F)cc1` (mixture of isomers) [Compound 417] belongs 221 nM; to `O=c1cc(NC2CC3(CCN(c4ncnc5sc(CC(F)(F)F)cc45)C3)C2)cc[nH]1` (mixture of isomers) [Compound 424], 576 nM.

Take `CN(C1CC2(CCN(c3ncnc4sc(CC(F)(F)F)cc34)C2)C1)S(=O)(=O)c1cccc(C#N)c1` (mixture of isomers) [Compound 425]: the IC50 was 234 nM. As to `CN(C1CC2(CCN(c3ncnc4sc(CC(F)(F)F)cc34)C2)C1)S(=O)(=O)c1cccc(C(F)(F)F)c1` (mixture of isomers) [Compound 426], the half-inhibitory concentration (IC50) worked out at 536 nM. Turning to `CN(C1CC2(CCN(c3ncnc4sc(CC(F)(F)F)cc34)C2)C1)S(=O)(=O)c1ccc(C(F)(F)F)cc1` (mixture of isomers) [Compound 427], the half-inhibitory concentration (IC50) was more than 10000 nM. On the same count and under the same terms, to `FC(F)(F)Cc1cc2c(N3CC4(CCC(Nc5cn[nH]c5)C4)C3)ncnc2s1` (racemic) [Compound 277] belongs 949 nM; to `Cc1nc(N2CC3(CCC(Nc4ccc(CC#N)cc4)C3)C2)c2cc(CC(F)(F)F)sc2n1` (racemic) [Compound 403], 553 nM. On the same count and under the same terms, to `FC(F)(F)Cc1cc2c(N3CCC4(CCC(NCc5ccccc5)C4)C3)ncnc2s1` (single isomer, unassigned) [Compound 4] belongs 39.9 nM; to `FC(F)(F)Cc1cc2c(N3CCC4(CCC(NCc5ccccc5)C4)C3)ncnc2s1` (single isomer, unassigned) [Compound 6], 143 nM; to `N#CCc1ccc(C(=O)NC2CC3(CCN(c4ncnc5sc(CC(F)(F)F)cc45)C3)C2)cc1` (single isomer, unassigned) [Compound 11], 3760 nM. Take `N#CCc1ccc(C(=O)NC2CC3(CCN(c4ncnc5sc(CC(F)(F)F)cc45)C3)C2)cc1` (single isomer, unassigned) [Compound 12]: the IC50 was 730 nM. Take `CN(C1CC2(CCN(c3ncnc4sc(CC(F)(F)F)cc34)C2)C1)S(=O)(=O)c1ccccc1` (single isomer, unassigned) [Compound 25]: the half-inhibitory concentration (IC50) worked out at 510 nM. For `CN(C1CC2(CCN(c3ncnc4sc(CC(F)(F)F)cc34)C2)C1)S(=O)(=O)c1ccccc1` (single isomer, unassigned) [Compound 26], the IC50 was determined as 311 nM.

The IC50 is the concentration that gives 50% inhibition.
